{"source": "ChEMBL document CHEMBL3085706", "about": "“Scorpiand-like azamacrocycles prevent the chronic establishment of Trypanosoma cruzi in a murine model” (Eur J Med Chem, 2013)", "key": {"Trypanosoma cruzi [1]": {"tested_on": "Trypanosoma cruzi", "assay": "Trypanocidal activity against extracellular trypomastigote form of Trypanosoma cruzi IRHOD/CO/2008/SN3 after 24 hrs by Neubauer hemocytometric analysis", "assay_type": "functional, organism-based", "conditions": "IRHOD/CO/2008/SN3, 24 h"}, "Trypanosoma cruzi [2]": {"tested_on": "Trypanosoma cruzi", "assay": "Trypanocidal activity against intracellular amastigote form of Trypanosoma cruzi IRHOD/CO/2008/SN3 infected in African green monkey Vero cells after 72 hrs by Giemsa staining assay", "assay_type": "functional, organism-based", "conditions": "IRHOD/CO/2008/SN3, Vero"}, "Trypanosoma cruzi [3]": {"tested_on": "Trypanosoma cruzi", "assay": "Trypanocidal activity against extracellular epimastigote form of Trypanosoma cruzi IRHOD/CO/2008/SN3 after 72 hrs by Neubauer hemocytometric analysis", "assay_type": "functional, organism-based", "conditions": "IRHOD/CO/2008/SN3, 72 h"}, "Trypanosoma cruzi [4]": {"tested_on": "Trypanosoma cruzi", "assay": "Trypanocidal activity against epimastigote form of Trypanosoma cruzi IRHOD/CO/2008/SN3 assessed as induction of ethanol production at IC25 after 96 hrs by NMR spectra analysis", "assay_type": "functional, organism-based"}, "[5]": {"assay": "Inhibition of Escherichia coli Mn-SOD assessed as reduction of nitrobluetetrazolium measured for 10 mins by spectrophotometric analysis"}, "[6]": {"assay": "Inhibition of Fe-SOD in Trypanosoma cruzi IRHOD/CO/2008/SN3 epimastigotes assessed as reduction of nitrobluetetrazolium measured for 10 mins by spectrophotometric analysis"}, "Trypanosoma cruzi [7]": {"tested_on": "Trypanosoma cruzi", "assay": "Trypanocidal activity against epimastigote form of Trypanosoma cruzi IRHOD/CO/2008/SN3 assessed as empty mitochondria at IC25 after 96 hrs by transmission electron microscopic analysis", "assay_type": "functional, organism-based"}, "Trypanosoma cruzi [8]": {"tested_on": "Trypanosoma cruzi", "assay": "Trypanocidal activity against epimastigote form of Trypanosoma cruzi IRHOD/CO/2008/SN3 assessed as abundant larger acidocalcisomes at IC25 after 96 hrs by transmission electron microscopic analysis", "assay_type": "functional, organism-based"}, "Trypanosoma cruzi [9]": {"tested_on": "Trypanosoma cruzi", "assay": "Trypanocidal activity against epimastigote form of Trypanosoma cruzi IRHOD/CO/2008/SN3 assessed as appearance of strongly electrondensed glycosomes at IC25 after 96 hrs by transmission electron microscopic analysis", "assay_type": "functional, organism-based"}, "Mus musculus [10]": {"tested_on": "Mus musculus", "assay": "Hepatotoxicity in BALB/c mouse infected with bloodstream trypomastigote form of Trypanosoma cruzi IRHOD/CO/2008/SN3 assessed as hepatic destruction in portal space at 5 mg/kg/day, ip administered for 5 days measured 150 days post-infection by light microscopic analysis", "assay_type": "toxicity, organism-based", "set-up": "route intraperitoneal", "conditions": "in vivo, 3600 h"}, "Mus musculus [11]": {"tested_on": "Mus musculus", "assay": "Hepatotoxicity in BALB/c mouse infected with bloodstream trypomastigote form of Trypanosoma cruzi IRHOD/CO/2008/SN3 assessed as lymphocytic infiltration in portal tracts at 5 mg/kg/day, ip administered for 5 days measured 150 days post-infection by light microscopic analysis", "assay_type": "toxicity, organism-based", "set-up": "route intraperitoneal", "conditions": "in vivo, 3600 h"}, "Mus musculus [12]": {"tested_on": "Mus musculus", "assay": "Hepatotoxicity in BALB/c mouse infected with bloodstream trypomastigote form of Trypanosoma cruzi IRHOD/CO/2008/SN3 assessed as vessels with thickened walls at 5 mg/kg/day, ip administered for 5 days measured 150 days post-infection by light microscopic analysis", "assay_type": "toxicity, organism-based", "set-up": "route intraperitoneal", "conditions": "in vivo"}, "Mus musculus [13]": {"tested_on": "Mus musculus", "assay": "Hepatotoxicity in BALB/c mouse infected with bloodstream trypomastigote form of Trypanosoma cruzi IRHOD/CO/2008/SN3 assessed as delocalized hepatic destruction at 5 mg/kg/day, ip administered for 5 days measured 150 days post-infection by light microscopic analysis", "assay_type": "toxicity, organism-based", "set-up": "route intraperitoneal", "conditions": "in vivo, 3600 h"}, "Mus musculus [14]": {"tested_on": "Mus musculus", "assay": "Hepatotoxicity in BALB/c mouse infected with bloodstream trypomastigote form of Trypanosoma cruzi IRHOD/CO/2008/SN3 assessed as granuloma with lymphocytic infiltrate at 5 mg/kg/day, ip administered for 5 days measured 150 days post-infection by light microscopic analysis", "assay_type": "toxicity, organism-based", "set-up": "route intraperitoneal", "conditions": "in vivo, 3600 h"}, "Trypanosoma cruzi [15]": {"tested_on": "Trypanosoma cruzi", "assay": "Trypanocidal activity against bloodstream trypomastigote form of Trypanosoma cruzi IRHOD/CO/2008/SN3 infected in BALB/c mouse assessed as reduction of parasite load in liver at 5 mg/kg/day, ip administered for 5 days measured 150 days post-infection by PCR analysis", "assay_type": "functional, organism-based"}, "Trypanosoma cruzi [16]": {"tested_on": "Trypanosoma cruzi", "assay": "Trypanocidal activity against bloodstream trypomastigote form of Trypanosoma cruzi IRHOD/CO/2008/SN3 infected in cyclophosphamide monohydrate-treated BALB/c immunosuppression mouse model assessed as reduction of parasite load in liver at 5 mg/kg/day, ip administered for 5 days measured 150 days post-infection by PCR analysis", "assay_type": "functional, organism-based"}, "Trypanosoma cruzi [17]": {"tested_on": "Trypanosoma cruzi", "assay": "Trypanocidal activity against bloodstream trypomastigote form of Trypanosoma cruzi IRHOD/CO/2008/SN3 infected in cyclophosphamide monohydrate-treated BALB/c immunosuppression mouse model assessed as reduction of parasite load in heart at 5 mg/kg/day, ip administered for 5 days measured 150 days post-infection by PCR analysis", "assay_type": "functional, organism-based"}, "Trypanosoma cruzi [18]": {"tested_on": "Trypanosoma cruzi", "assay": "Trypanocidal activity against bloodstream trypomastigote form of Trypanosoma cruzi IRHOD/CO/2008/SN3 infected in cyclophosphamide monohydrate-treated BALB/c immunosuppression mouse model assessed as reactivation of parasitemia level at 5 mg/kg/day, ip administered for 5 days measured 150 days post-infection (reference value: 91.7 %)", "assay_type": "functional", "conditions": "route intraperitoneal"}, "Trypanosoma cruzi [19]": {"tested_on": "Trypanosoma cruzi", "assay": "Trypanocidal activity against bloodstream trypomastigote form of Trypanosoma cruzi IRHOD/CO/2008/SN3 infected in BALB/c mouse assessed as reduction of anti-parasitic Ig-G level in serum at 5 mg/kg/day, ip administered for 5 days measured over 40 to 120 days post-infection by ELISA", "assay_type": "functional, organism-based"}, "Trypanosoma cruzi [20]": {"tested_on": "Trypanosoma cruzi", "assay": "Trypanocidal activity against trypomastigote form of Trypanosoma cruzi IRHOD/CO/2008/SN3 infected in African green monkey Vero cells assessed as inhibition of trypomastigotes released in culture medium at IC25 relative to control", "assay_type": "functional"}, "Trypanosoma cruzi [21]": {"tested_on": "Trypanosoma cruzi", "assay": "Trypanocidal activity against amastigote form of Trypanosoma cruzi IRHOD/CO/2008/SN3 infected in African green monkey Vero cells assessed as inhibition of amastigotes load per cell at IC25 preincubated for 12 hrs followed by compound washout measured after 10 days by Giemsa staining-based microscopic analysis relative to control", "assay_type": "functional"}, "Trypanosoma cruzi [22]": {"tested_on": "Trypanosoma cruzi", "assay": "Trypanocidal activity against amastigote form of Trypanosoma cruzi IRHOD/CO/2008/SN3 infected in African green monkey Vero cells assessed as inhibition of parasite infection rate at IC25 preincubated for 12 hrs followed by compound washout measured after 10 days by Giemsa staining-based microscopic analysis relative to control", "assay_type": "functional"}, "[23]": {"assay": "Selectivity index, ratio of IC50 for African green monkey Vero cells to IC50 for intracellular amastigote form of Trypanosoma cruzi IRHOD/CO/2008/SN3", "assay_type": "toxicity, cell-based", "conditions": "read-out: Ratio IC50"}, "Vero": {"tested_on": "Vero", "assay": "Cytotoxicity against African green monkey Vero cells after 72 hrs by flow cytometric analysis", "assay_type": "cell-based", "conditions": "Chlorocebus sabaeus"}, "Trypanosoma cruzi [24]": {"tested_on": "Trypanosoma cruzi", "assay": "Trypanocidal activity against bloodstream trypomastigote form of Trypanosoma cruzi IRHOD/CO/2008/SN3 infected in cyclophosphamide monohydrate-treated BALB/c immunosuppression mouse model assessed as reduction of total anti-parasitic Ig-G level in serum at 5 mg/kg/day, ip administered for 5 days measured 150 days post-infection by ELISA", "assay_type": "functional, organism-based"}, "Mus musculus [25]": {"tested_on": "Mus musculus", "assay": "Hepatotoxicity in BALB/c mouse infected with bloodstream trypomastigote form of Trypanosoma cruzi IRHOD/CO/2008/SN3 assessed as interstitial hemorrhage at 5 mg/kg/day, ip administered for 5 days measured 150 days post-infection by light microscopic analysis", "assay_type": "toxicity, organism-based", "set-up": "route intraperitoneal", "conditions": "in vivo, 3600 h"}, "Trypanosoma cruzi [26]": {"tested_on": "Trypanosoma cruzi", "assay": "Trypanocidal activity against epimastigote form of Trypanosoma cruzi IRHOD/CO/2008/SN3 assessed as inhibition of lactate excretion at IC25 after 96 hrs by NMR spectra analysis", "assay_type": "functional, organism-based"}, "Trypanosoma cruzi [27]": {"tested_on": "Trypanosoma cruzi", "assay": "Trypanocidal activity against epimastigote form of Trypanosoma cruzi IRHOD/CO/2008/SN3 assessed as inhibition of alanine excretion at IC25 after 96 hrs by NMR spectra analysis", "assay_type": "functional, organism-based"}, "Trypanosoma cruzi [28]": {"tested_on": "Trypanosoma cruzi", "assay": "Trypanocidal activity against epimastigote form of Trypanosoma cruzi IRHOD/CO/2008/SN3 assessed as effect on succinate production at IC25 after 96 hrs by NMR spectra analysis", "assay_type": "functional, organism-based"}}, "note": "The source made the active and inactive calls. No cut-off for these calls is given here.", "data": [{"smiles": "Cl.c1cncc(CNCCN2CCNCc3cccc(n3)CNCC2)c1", "values": [{"measurement": "IC50", "setting": "Trypanosoma cruzi [1]", "value": 19.7, "unit": "µM"}, {"measurement": "IC50", "setting": "Trypanosoma cruzi [2]", "value": 9.5, "unit": "µM"}, {"measurement": "IC50", "setting": "Trypanosoma cruzi [3]", "value": 8, "unit": "µM"}, {"measurement": "Activity", "setting": "Trypanosoma cruzi [4]", "value": "Active"}, {"measurement": "IC50", "setting": "[5]", "value": 63.6, "unit": "µM"}, {"measurement": "IC50", "setting": "[6]", "value": 10.8, "unit": "µM"}, {"measurement": "Activity", "setting": "Trypanosoma cruzi [7]", "value": "Active"}, {"measurement": "Activity", "setting": "Trypanosoma cruzi [8]", "value": "Active"}, {"measurement": "Activity", "setting": "Trypanosoma cruzi [9]", "value": "Active"}, {"measurement": "Activity", "setting": "Mus musculus [10]", "value": "Non-toxic"}, {"measurement": "Activity", "setting": "Mus musculus [11]", "value": "Toxic"}, {"measurement": "Activity", "setting": "Mus musculus [12]", "value": "Toxic"}, {"measurement": "Activity", "setting": "Mus musculus [13]", "value": "Toxic"}, {"measurement": "Activity", "setting": "Mus musculus [14]", "value": "Toxic"}, {"measurement": "Activity", "setting": "Trypanosoma cruzi [15]", "value": "Active"}, {"measurement": "Activity", "setting": "Trypanosoma cruzi [16]", "value": "Active"}, {"measurement": "Activity", "setting": "Trypanosoma cruzi [17]", "value": "Active"}, {"measurement": "Activity", "setting": "Trypanosoma cruzi [18]", "value": 5.6, "unit": "%"}, {"measurement": "Activity", "setting": "Trypanosoma cruzi [19]", "value": "Active"}, {"measurement": "inhibition (INH)", "setting": "Trypanosoma cruzi [20]", "value": 89, "unit": "%"}, {"measurement": "inhibition (INH)", "setting": "Trypanosoma cruzi [21]", "value": 69, "unit": "%"}, {"measurement": "inhibition (INH)", "setting": "Trypanosoma cruzi [22]", "value": 86, "unit": "%"}, {"measurement": "selectivity ratio", "setting": "[23]", "value": 44.8}, {"measurement": "IC50", "setting": "Vero", "value": 425, "unit": "µM"}, {"measurement": "Activity", "setting": "Trypanosoma cruzi [24]", "value": "Active"}, {"measurement": "Activity", "setting": "Mus musculus [25]", "value": "Non-toxic"}, {"measurement": "inhibition", "setting": "Trypanosoma cruzi [26]", "value": "Active"}, {"measurement": "inhibition", "setting": "Trypanosoma cruzi [27]", "value": "Active"}, {"measurement": "Activity", "setting": "Trypanosoma cruzi [28]", "value": "inactive"}]}]}
